Measurements published in patent US20060084597A2, “USE OF COMPOUNDS HAVING GIP ACTIVITY FOR THE TREATMENT OF DISORDERS ASSOCIATED WITH ABNORMAL LOSS OF CELLS AND/OR FOR THE TREATMENT OF OBESITY” (Eisai Co., Ltd., priority 2002, published 2006).

Key:
[1] = test system: adult hippocampal progenitor cells; assay: CyQUANT cell proliferation assay (DNA content); assay type: cell-based, rat; conditions: for cells in a well at the end of the experiment: around 6 x 10^3 cells seeded, control well without FGF around 1.5 x 10^5
Method: Proliferation assay. Hippocampal progenitor cells were seeded at 0.2 x 10^4 cells/cm^2 on 24-well plates in culture medium containing human FGF-2 (20ng/ml) and left to grow for 48 h. After a further 48 h of growth without FGF-2, cells were incubated with porcine GIP at different concentrations (Sigma), FGF-2 alone or a combination of both GIP (1 nM) and FGF-2 for 48 h. Cell proliferation assay was performed using the CyQUANT Cell Proliferation Kit (Molecular Probes, Eugene, OR) and a GENios microplate reader (TECAN Austria GmbH, Grödig, Austria) according to the instructions of the manufacturer.

[2] = test system: adult hippocampal progenitor cells; assay: methyl-[3H]-thymidine incorporation assay; assay type: cell-based, rat; conditions: 24 h, n = 12
Method: Thymidin-assay. Hippocampal progenitor cells were seeded at 0.5 x 10^4 cells/cm^2 on 48-well plates in culture medium and left to grow for 48 h. The cells were then labeled with methyl-[^3H]-thymidine and incubated with GIP (1 nM) or FGF-2 (20ng/ml) for 24 h. Cells were lysed in 0.4 M NaOH, transferred to scint vials, mixed with 0.4 M HCl and assayed for DNA synthesis by scintillation spectrometry. The mean for each experiment was calculated from four different culture wells and each experiment was performed 12 times.

[3] = test system: adult hippocampal progenitor cells; assay: Apop-Tag staining for apoptotic or dead cells; assay type: cell-based, rat; conditions: control 3.31 + 0.67%
Method: Apop-Tag. Hippocampal progenitor cells were seeded at 1 x 10^4 cells/cm^2 on glass coverslips and treated the same way as for the proliferation assay and incubated with GIP (1 nM) or FGF-2 (20 ng/ml). Cells were fixed and stained for apoptosis according to the Apop Tag kit user manual (Apop Tag S160 direct, Intergene Company, Purchase, NY, USA). A negative control without TdT-enzyme was included and positive controls with addition of H2O2 (100 µM and 1 mM) and DNase I (1 µg/ml) was included. In the last washing step the cells were incubated with the nuclear dye bisBenzimide (Hoechst 33258, Sigma) for 30 min. Apoptotic or dead cells were identified by green fluorescence in the nuclei and Hoechst nuclear dye was used to discriminate total number of cells. Three coverslips per experiment was stained from four different experiments. Positive cells was quantified by scoring the immunoreactivity of 1000–3000 cells systematically observed in 6 nonoverlapping fields in each coverslip.

[4] = test system: adult hippocampal progenitor cells; assay: LDH release from dying cells; assay type: cell-based, rat; conditions: GIP 1 nM or FGF-2 20 ng/ml
Method: LDH-activity. Release of lactate dehydrogenase (LDH) from dying cells was measured using a routine photometric method (Dept. of Clinical Chemistry, Sahlgrenska University Hospital, Sweden). Cell culture medium was collected from culture wells seeded for the Apop Tag staining (see above). . The mean for each experiment was calculated from three different culture wells and each experiment was performed 4 times. The coefficient of variation for the assay was 1.7 % and the assay standard curve was linear for enzyme activities between 0.1–20 µkat/ dm^3.

[5] = test system: hippocampal progenitor cells in adult rat DG; assay: Intracerebroventricular GIP infusion, BrdU-positive cell count in granule cell layer of dentate gyrus; assay type: in vivo; conditions: adult male SD rats, i.c.v. 1.92 nmol/day for 5 days
Method: Intracerebroventricular GIP infusion. Adult male SD rats (260-280 g; B&K Universal, Sweden) were intubated and ventilated with isoflurane in an O2/N2O mix (30:70). An infusion cannula connected to an osmotic pump (Alzet brain infusion kit II and Alzet 2001 osmotic pump, Alza Scientific Products, Palo Alto, CA) was placed in the 3rd cerebral ventricle (0.3 mm posterior from Bregma along the midline, 5 mm below skull surface). Each rat was infused (1 µl/hr) for 5 days with either GIP (1.92 nmol/day; n = 5) or vehicle (0.1 M PBS; n = 6) and sacrificed the last day. All animals received a single daily intraperitoneal injection of Bromodeoxyuridine (BrdU; 50 mg/kg of body weight; Boehringer Mannheim; Scandinavia AB, Bromma, Sweden).
Immunohistochemistry and cellcounting. Brains were sectioned and stained for BrdU using a primary mouse BrdU antibody (1:400, Boeringer Mannheim) and biotinylated horse anti-mouse IgG (1:125) secondary antibodies (Vector Laboratories, Burlingame, CA) as previously described^11. For each animal, the total number of BrdU-positive cells in the granule cell layer, including the subgranular layer, and their corresponding sample volume were determined in 12 immunoperoxidase-stained, 40-µm-thick coronal sections taken 240 µm apart. […] Results are expressed as BrdU-positive cells per sample volume.
Statistics. […] All values are expressed as the means ± SEM.

[6] = Effect on weight gain after intraventricular infusion in the brain; assay type: in vivo, rat; conditions: male Sprague-Dawley rats, 1.92 nmol/day intraventricularly, 5 days
Method: Rats (male Sprague-Dawley) were given either GIP (6 rats, 1.92 nmol/day) or phosphate buffered saline (PBS) as control-solution (7 rats), intraventricularly in the brain by osmotic mini-pumps. The rats were given substance during five days, and then sacrificed.
The weight of each rat was recorded and the total weight gain during the five days calculated.

Row | Substance | increase in cell proliferation relative to control ([1]; FGF-2 20 ng/ml alone, 48 h, n = 4) | cells in a well at the end of the experiment [1] | increase in thymidin incorporation compared to control ([2]; FGF-2 20 ng/ml) | cell death ([3]; FGF-2 20 ng/ml) | extracellular level of released LDH compared with controls [4] | proliferative effect ([1]; GIP 0.1 pM, 48 h) | proliferative effect compared with FGF-2 ([1]; GIP 1 nM vs FGF-2 20 ng/ml) | increase in cell proliferation relative to control ([1]; GIP 1 nM, 48 h, n = 8) | rate of cell proliferation, dose-dependent ([1]; GIP doses from 1 pM to 0.1 µM, 48 h) | increase in thymidin incorporation compared to control ([2]; GIP 1 nM) | cell death compared with control ([3]; GIP 1 nM) | number of BrdU+ cells in the granule cell layer ([5]; n = 5, PBS 14986 ± 1831) | increase in BrdU-positive cells versus PBS-treated animals ([5]; p < 0.05) | weight gain as % of the weight gain seen in the PBS treated rats [6] | total weight gain during the five days ([6]; PBS 28.5g)
1 | FGF-2: human fibroblast growth factor-2, a well-documented proliferative agent of these cells [reference compound] | 112.3 ± 20% | ~3 x 10^5 cells | 60.1 ± 7.1% | 0.96 + 0.21% | no statistical difference | – | – | – | – | – | – | – | – | – | –
2 | GIP: 42 amino acid gastric inhibitory polypeptide; porcine GIP (Sigma) used in the cell assays (YAEGTFISDYSIAMDKIRQQDFVNWLLAQKGKKSDWKHNITQ; Gastric inhibitory polypeptide synthetic; UniProt P01281 1-42, looked up) | – | ~2.5 x 10^5 cells | – | – | no statistical difference | absent | slightly more than half | 74.5 ± 14.4% | significant increases | 32.4 ± 3.3% | not statistically different | 27969 ± 5795 cells/mm^3 | 86% | 63% | 17.9 g
